Assay results as given in patent publication US20080293820A1, “METHODS FOR IMPROVING PHYSICAL FUNCTION IN FIBROMYALGIA” (Cypress Bioscience, Inc., priority 2007, published 2008).
Several values for one entry are separate records, joined by “and”; a condition that tells them apart may be missing. Equal values may be shown once. Where a name gives a salt, the structure may show the parent alone.

Tests used:
[1] = tested on: patients who met the 1990 ACR criteria for fibromyalgia syndrome; test: Example 1: multi-center double-blind, randomized, placebo-controlled study of milnacipran for the treatment of fibromyalgia (888 patients); type: in vivo, human; set-up: Mean Change from Baseline in PFI SF-36 domain score / Mean Change from Baseline in PAIN SF-36 domain score / Mean Change from Baseline in GHP SF-36 domain score / Mean Change from Baseline in ROLP SF-36 domain score: scale not given here; conditions: for responders for the treatment of the pain of fibromyalgia (pain composite), % = m/n: observed cases (OC), hydrochloride; for odds ratio of response / number of responders m (pain of fibromyalgia): OC; for Mean Change from Baseline in GHP SF-36 domain score / Mean Change from Baseline in PAIN SF-36 domain score / Mean Change from Baseline in PCS Score / Mean Change from Baseline in PFI SF-36 domain score / Mean Change from Baseline in ROLP SF-36 domain score: Observed Cohort
Procedure: The primary outcome was a composite responder analysis assessing response rate at weeks 14 and 15, and the secondary analysis assessed response rate at weeks 26 and 27.
This was a multi-center, randomized, double-blinded, placebo-controlled three-arm study, which enrolled 888 patients who met the 1990 ACR criteria for fibromyalgia syndrome as well as the more detailed admission criteria outlined in the protocol.
Patients were randomized to receive either placebo, 100 mg/day milnacipran, or 200 mg/day milnacipran in a ratio of a 1:1:2. All randomized medications (placebo and milnacipran) were administered in a split-dose (BID) fashion. The doses were administered in a dose escalation regimen as outlined below:
All patients were scheduled to receive a total of 24 weeks of milnacipran or placebo after the 3 weeks of dose escalation steps, for a total of 27 weeks of milnacipran or placebo exposure.
The primary endpoint of this study was a composite responder analysis implementing analysis of three domains of interest, evaluated at […]. The domains measured were:
1) pain (measured by an electronic diary as a daily recall pain score, calculated to weekly average scores)
2) patient global (measured by the PGIC, 1-7 scale)
3) physical function (measured by the SF-36 PCS).
For the primary analysis, the pain domain score was determined by a calculation that compared the average of treatment weeks 14 and 15 to the two baseline weeks, and treatment weeks 26 and 27 vs. baseline for the secondary analysis. The last observation was carried forward if neither the week 14 nor week 15 (or week 26/27) patient self-reported pain score is available to compare to the baseline value.
A responder was defined as a subject who experienced a greater than 30% reduction in pain from baseline and improvement on the PGIC.
At three months, the percentage of responders was: 35.44% (56/158) in the placebo group; 53.33% (72/135) (p=0.001) in the milnacipran 100 mg/day group; and 55.00% (143/260) (p<0.001) in the milnacipran 200 mg/day group. At six months, the percentage of responders was: 32.86% (46/140) in the placebo group; 49.59% (60/121) (p=0.002) in the milnacipran 100 mg/day group; and 51.74% (119/230) (p<0.001) in the milnacipran 200 mg/day group. See Table 1 for a summary of the results in the Intent-to-Treat Population and Table 2 for a summary of the Last Observation Carried Forward (LOCF), Baseline Observation Carried Forward (BOCF) and study completer (OC) populations. LOCF is an analysis in which observations are carried forward to the last time point for patients who dropped out. The LOCF analysis treats the carried-forward data as observed data at the last time point. BOCF is an analysis that requires the patient remain active in the trial to be evaluated for response. If a patient withdraws from the trial for any reason they are classed as a non-responder irregardless of their pain and global scores at the time of withdrawal.
The following domains were used to evaluate the PCS score: physical function (PFI), role physical (ROLP), bodily pain (PAIN), general health profile (GHP), […] (VIT), social role (SOC), role emotional (ROLE) and mental health index (MHI). The PFI, ROLP, PAIN and GHP domains are positively weighted in the PCS calculation, and the VIT, SOC, ROLE and MHI domains are negatively weighted in the PCS calculation (Normative Value=50, SD=10).

fibromyalgia patients = conditions: cited from earlier work
[2] = both milnacipran treatment groups (QD and BID), escalation to maximum 200 mg/day

CCN(CC)C(=O)C1(c2ccccc2)CC1CN (racemic) [milnacipran, Z-2-aminomethyl-1-phenyl-N,N-diethylcyclopropanecarboxamide hydrochloride]
physical function in patients with fibromyalgia compared to placebo (in words) ([1]; 100 mg or 200 mg): surprisingly and effectively improves physical function
responders for the treatment of the pain of fibromyalgia (pain composite), % = m/n ([1]; 100 mg/day, treatment weeks 14-15 (3 months)): 53.33% and 53.3%
responders for the treatment of the pain of fibromyalgia (pain composite), % = m/n ([1]; 100 mg/day, treatment weeks 14-15 (3 months), listed as Milnacipran): 53.33%
responders for the treatment of the pain of fibromyalgia (pain composite), % = m/n ([1]; 100 mg/day, treatment weeks 26-27 (6 months)): 49.59% and 49.6%
responders for the treatment of the pain of fibromyalgia (pain composite), % = m/n ([1]; 100 mg/day, treatment weeks 26-27 (6 months), listed as Milnacipran): 49.59%
odds ratio of response ([1]; 100 mg/day, weeks 14-15): 2.10
number of responders m (pain of fibromyalgia) ([1]; 100 mg/day, weeks 14-15, n=135): 72
odds ratio of response ([1]; 100 mg/day, weeks 26-27): 1.96
number of responders m (pain of fibromyalgia) ([1]; 100 mg/day, weeks 26-27, n=121): 60
Pain Composite responder rate, Sensitivity Analysis II ([1]; 100 mg, 3 month): 32.%
Pain Composite responder rate, Sensitivity Analysis III ([1]; 100 mg, 3 month): 32.1%
Pain Composite responder rate, Sensitivity Analysis I (BOCF) ([1]; 100 mg, 3 month): 32.1%
Individual component responder rate: PGIC (LOCF) ([1]; 100 mg, 3 month): 54.0%
Individual component responder rate: Pain (LOCF) ([1]; 100 mg, 3 month): 35.7%
Pain Composite responder rate, Primary Analysis (LOCF) ([1]; 100 mg, 3 month): 33.5%
Pain Composite responder rate, Sensitivity Analysis II ([1]; 100 mg, 6 month): 27.2%
Pain Composite responder rate, Sensitivity Analysis III ([1]; 100 mg, 6 month): 29.5%
Pain Composite responder rate, Sensitivity Analysis I (BOCF) ([1]; 100 mg, 6 month): 26.8%
Individual component responder rate: PGIC (LOCF) ([1]; 100 mg, 6 month): 49.6%
Individual component responder rate: Pain (LOCF) ([1]; 100 mg, 6 month): 35.7%
Pain Composite responder rate, Primary Analysis (LOCF) ([1]; 100 mg, 6 month): 30.8%
Mean Change from Baseline in GHP SF-36 domain score ([1]; 100 mg, Tx 3): 5.9
Mean Change from Baseline in PAIN SF-36 domain score ([1]; 100 mg, Tx 3): 11.8
Mean Change from Baseline in PCS Score ([1]; 100 mg, Tx 3): 3.6
Mean Change from Baseline in PFI SF-36 domain score ([1]; 100 mg, Tx 3): 6.4
Mean Change from Baseline in ROLP SF-36 domain score ([1]; 100 mg, Tx 3): 12.3
Mean Change from Baseline in GHP SF-36 domain score ([1]; 100 mg, Tx 7): 6.3
Mean Change from Baseline in PAIN SF-36 domain score ([1]; 100 mg, Tx 7): 15.0
Mean Change from Baseline in PCS Score ([1]; 100 mg, Tx 7): 4.6
Mean Change from Baseline in PFI SF-36 domain score ([1]; 100 mg, Tx 7): 7.6
Mean Change from Baseline in ROLP SF-36 domain score ([1]; 100 mg, Tx 7): 16.4
Mean Change from Baseline in GHP SF-36 domain score ([1]; 100 mg, Tx 11): 8.1
Mean Change from Baseline in PAIN SF-36 domain score ([1]; 100 mg, Tx 11): 19.4
Mean Change from Baseline in PCS Score ([1]; 100 mg, Tx 11): 5.9
Mean Change from Baseline in PFI SF-36 domain score ([1]; 100 mg, Tx 11): 10.6
Mean Change from Baseline in ROLP SF-36 domain score ([1]; 100 mg, Tx 11): 18.6
Mean Change from Baseline in GHP SF-36 domain score ([1]; 100 mg, Tx 15): 7.8
Mean Change from Baseline in PAIN SF-36 domain score ([1]; 100 mg, Tx 15): 18.1
Mean Change from Baseline in PCS Score ([1]; 100 mg, Tx 15): 6.2
Mean Change from Baseline in PFI SF-36 domain score ([1]; 100 mg, Tx 15): 11.4
Mean Change from Baseline in ROLP SF-36 domain score ([1]; 100 mg, Tx 15): 19.3
responders for the treatment of the pain of fibromyalgia (pain composite), % = m/n ([1]; 200 mg/day, treatment weeks 14-15 (3 months)): 55.0%
responders for the treatment of the pain of fibromyalgia (pain composite), % = m/n ([1]; 200 mg/day, treatment weeks 14-15 (3 months), listed as Milnacipran): 55.00%
responders for the treatment of the pain of fibromyalgia (pain composite), % = m/n ([1]; 200 mg/day, treatment weeks 26-27 (6 months)): 51.74% and 51.7%
responders for the treatment of the pain of fibromyalgia (pain composite), % = m/n ([1]; 200 mg/day, treatment weeks 26-27 (6 months), listed as Milnacipran): 51.74%
odds ratio of response ([1]; 200 mg/day, weeks 14-15): 2.20
number of responders m (pain of fibromyalgia) ([1]; 200 mg/day, weeks 14-15, n=260): 143
odds ratio of response ([1]; 200 mg/day, weeks 26-27): 2.20
number of responders m (pain of fibromyalgia) ([1]; 200 mg/day, weeks 26-27, n=230): 119
Pain Composite responder rate, Sensitivity Analysis II ([1]; 200 mg, 3 month): 32.7%
Pain Composite responder rate, Sensitivity Analysis III ([1]; 200 mg, 3 month): 32.4%
Pain Composite responder rate, Sensitivity Analysis I (BOCF) ([1]; 200 mg, 3 month): 32.4%
Individual component responder rate: PGIC (LOCF) ([1]; 200 mg, 3 month): 50.6%
Individual component responder rate: Pain (LOCF) ([1]; 200 mg, 3 month): 38.3%
Pain Composite responder rate, Primary Analysis (LOCF) ([1]; 200 mg, 3 month): 34.9%
Pain Composite responder rate, Sensitivity Analysis II ([1]; 200 mg, 6 month): 28.6%
Pain Composite responder rate, Sensitivity Analysis III ([1]; 200 mg, 6 month): 29.9%
Pain Composite responder rate, Sensitivity Analysis I (BOCF) ([1]; 200 mg, 6 month): 27.0%
Individual component responder rate: PGIC (LOCF) ([1]; 200 mg, 6 month): 49.9%
Individual component responder rate: Pain (LOCF) ([1]; 200 mg, 6 month): 35.4%
Pain Composite responder rate, Primary Analysis (LOCF) ([1]; 200 mg, 6 month): 32.2%
Mean Change from Baseline in GHP SF-36 domain score ([1]; 200 mg, Tx 3): 6.0
Mean Change from Baseline in PAIN SF-36 domain score ([1]; 200 mg, Tx 3): 12.5
Mean Change from Baseline in PCS Score ([1]; 200 mg, Tx 3): 3.6
Mean Change from Baseline in PFI SF-36 domain score ([1]; 200 mg, Tx 3): 8.2
Mean Change from Baseline in ROLP SF-36 domain score ([1]; 200 mg, Tx 3): 13.0
Mean Change from Baseline in GHP SF-36 domain score ([1]; 200 mg, Tx 7): 8.5
Mean Change from Baseline in PAIN SF-36 domain score ([1]; 200 mg, Tx 7): 18.6
Mean Change from Baseline in PCS Score ([1]; 200 mg, Tx 7): 5.9
Mean Change from Baseline in PFI SF-36 domain score ([1]; 200 mg, Tx 7): 11.0
Mean Change from Baseline in ROLP SF-36 domain score ([1]; 200 mg, Tx 7): 19.0
Mean Change from Baseline in GHP SF-36 domain score ([1]; 200 mg, Tx 11): 7.7
Mean Change from Baseline in PAIN SF-36 domain score ([1]; 200 mg, Tx 11): 16.8
Mean Change from Baseline in PCS Score ([1]; 200 mg, Tx 11): 5.6
Mean Change from Baseline in PFI SF-36 domain score ([1]; 200 mg, Tx 11): 10.7
Mean Change from Baseline in ROLP SF-36 domain score ([1]; 200 mg, Tx 11): 18.4
Mean Change from Baseline in GHP SF-36 domain score ([1]; 200 mg, Tx 15): 8.2
Mean Change from Baseline in PAIN SF-36 domain score ([1]; 200 mg, Tx 15): 19.3
Mean Change from Baseline in PCS Score ([1]; 200 mg, Tx 15): 6.1
Mean Change from Baseline in PFI SF-36 domain score ([1]; 200 mg, Tx 15): 11.9
Mean Change from Baseline in ROLP SF-36 domain score ([1]; 200 mg, Tx 15): 19.9
effect on the symptom of pain in FMS (in words) (fibromyalgia patients; 100 mg BID): effective acute (short-term) therapy
PGIC: completers who reported an improvement in their overall status (fibromyalgia patients; [2]): over 70%
PGIC: completers who reported worsening (fibromyalgia patients; [2]): 10%
